# From US8212014B2, “Artificial base pairs and uses thereof” (Riken, priority 2005, dated 2012)
# Values joined by “and” are separate entries in the source; they are usually repeats but may differ in a detail not shown here. Identical values can stand only once. Like-named read-outs stand apart in the source and are kept apart here. [s] = deoxynucleotide carrying the publication's artificial base s, incorporated via its phosphoramidite; [v] = deoxynucleotide carrying the publication's artificial base v, incorporated via its phosphoramidite
# Assays:
# T7 RNA polymerase [1] = biological target: T1, T7 RNA polymerase (Escherichia phage T7, UniProt P00573); conditions: natural NTPs 1 mM, sTP 1 mM; for relative yield of full-length (17-mer) transcript: template DNA containing one unnatural base, natural-base template set to 100%; for full-length transcript formation: template containing two unnatural bases
# T1 sequence (P00573 whole entry): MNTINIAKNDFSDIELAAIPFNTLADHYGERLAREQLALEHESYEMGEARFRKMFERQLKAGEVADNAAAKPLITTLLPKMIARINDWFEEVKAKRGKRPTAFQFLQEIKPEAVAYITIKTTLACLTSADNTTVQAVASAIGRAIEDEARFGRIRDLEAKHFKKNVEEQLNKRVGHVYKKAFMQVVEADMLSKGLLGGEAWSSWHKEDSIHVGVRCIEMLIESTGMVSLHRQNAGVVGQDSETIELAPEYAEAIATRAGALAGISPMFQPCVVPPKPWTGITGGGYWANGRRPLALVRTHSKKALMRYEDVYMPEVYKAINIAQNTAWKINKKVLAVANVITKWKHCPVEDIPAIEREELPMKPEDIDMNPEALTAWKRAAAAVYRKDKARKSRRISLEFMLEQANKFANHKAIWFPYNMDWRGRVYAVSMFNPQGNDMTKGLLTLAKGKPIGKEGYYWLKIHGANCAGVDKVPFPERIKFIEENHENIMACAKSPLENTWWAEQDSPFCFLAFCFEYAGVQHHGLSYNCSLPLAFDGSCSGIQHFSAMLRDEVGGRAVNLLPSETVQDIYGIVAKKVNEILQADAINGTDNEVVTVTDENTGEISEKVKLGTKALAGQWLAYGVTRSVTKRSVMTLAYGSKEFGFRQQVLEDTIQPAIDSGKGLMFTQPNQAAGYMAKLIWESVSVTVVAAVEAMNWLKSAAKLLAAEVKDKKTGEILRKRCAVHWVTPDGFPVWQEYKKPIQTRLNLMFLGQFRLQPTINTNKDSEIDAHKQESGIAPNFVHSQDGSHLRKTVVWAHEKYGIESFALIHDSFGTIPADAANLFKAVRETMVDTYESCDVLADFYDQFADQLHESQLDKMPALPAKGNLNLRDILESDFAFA
# Protocol: Transcription was performed in a 40 mM Tris-HCl (pH 8.0) buffer solution (20 μl) containing 24 mM MgCl2, 2 mM spermidine, 5 mM DTT and 0.01% Triton X-100, in the presence of 1 mM natural NTPs or 1 mM sTP, 2 μCi [γ-^32P]GTP, 2 μM template and 50 units of T7 RNA polymerase (Takara, Kyoto).
# The use of [γ-^32P]GTP allowed determination of yields because the transcripts were labeled only at their 5′-end. After incubation at 37° C. for 3 hours, a dye solution (20 μl ) containing 10 M urea and 0.05% BPB was added to stop the reaction. The mixtures were each heated at 75° C. for 3 hours and the products were analyzed on a 20% polyacrylamide-7 M urea gel.
# These templates were used to effect transcription for 3 hours, and the transcripts whose 5′-end was labeled with [γ-^32P]GTP were analyzed on a gel. […] The transcripts are labeled with [γ-^32P]GTP at their 5′-end. The relative yield of each transcript was determined in comparison with the yield of a transcript from a template composed only of natural bases, which was set to 100%. Each yield was averaged from 3 to 4 data sets.
# [2] = Excitation and fluorescence spectra of the fluorescent bases; format: physicochemical; conditions: for fluorescence wavelength, center: excited at the stated excitation wavelength
# T7 RNA polymerase [3] = biological target: T1, T7 RNA polymerase
# Protocol: In this example, to study the selectivity of s-Pa base pair during transcription, composition analysis was performed on nucleotides in the full-length (17-mer) transcripts obtained by transcription from Pa, z and natural templates. The transcripts were each internally labeled with any of [α-^32P]UTP, [α-^32P]ATP or [α-^32]GTP, and these transcripts were completely digested with RNase T2 into a nucleoside 3′-phosphate form. The resulting labeled nucleotides were analyzed by 2D-TLC (FIG. 3), and the spots were quantified for each nucleoside 3′-monophosphate (Table 1).
# More specifically, transcription was performed in 40 mM Tris-HCl (pH 8.0) buffer (20 μl) containing 24 mM MgCl2, 2 mM spermidine, 5 mM DTT and 0.01% Triton X-100, in the presence of 10 mM GMP, 1 mM natural NTPs (1 mM, N=A, G, C, U), 0, 1 or 3 mM sTP, 2 μCi [γ-^32P]UTP, [γ-^32P]ATP or [γ-^32P]GTP (Amersham), 2 μM template DNA, and 50 units of T7 RNA polymerase (Takara) (Non-patent Documents 14 and 15). After incubation for 3 hours at 37° C., a dye solution was added to stop the transcription.
# This mixture was heated at 75° C. for 3 hours and then electrophoresed on a 15% polyacrylamide-7 M urea gel. The full-length product was eluted from the gel and 0.05 A260 units of E. coli tRNA was then added thereto, followed by ethanol precipitation. The transcript was digested at 37° C. for 2 hours with 0.075 U/μl RNase T2 in 15 mM sodium acetate buffer (pH 4.5). […] The digestion products were analyzed by 2D-TLC using a Merck HPTLC plate (100×100 mm, Merck, Darmstadt, Germany). The developing solvents used for the first and second dimensions were isobutyric acid/NH4OH/H2O (66:1:33 v/v/v) and isopropyl alcohol/HCl/H2O (70:15:15 v/v/v), respectively. The products on the TLC plate were analyzed with a bio-imaging analyzer. Each spot was quantified by averaging from 3 to 9 data sets.
# T7 RNA polymerase [4] = biological target: T1, T7 RNA polymerase; conditions: 1 mM yTP; template composed only of natural bases (Entry No. 10)
# Protocol: T7 RNA polymerase-mediated transcription reaction was accomplished in a reaction solution containing 40 mM Tris-HCl buffer (pH 8.0), 8 mM MgCl2, 2 mM spermidine, 5 mM DTT, 0.01% Triton X-100, 2 μCi [α-^32P]ATP or 2 μCi [α-^32P]GTP or 2 μCi [α-^32P]CTP or 2 μCi [α-^32P]UTP, 1 mM NTPs, 0-1 mM sTP, 0-1 mM yTP, 0.5 μM template DNA, and 50 units of T7 RNA polymerase (Takara). The transcript was purified by electrophoresis on a 15% polyacrylamide-7 M urea gel, eluted from the gel and then collected by ethanol precipitation in the presence of tRNA (0.05 OD). This sample was dissolved in 10 μl sterilized water, and the resulting solution (8.5 μl) was provided for complete digestion with RNase T2. To the solution (8.5 μl), RNase T2 (1.5 μl, 0.5 U/μl) was added and reacted at 37° C. for 2 hours. A part of this solution was spotted on a TLC plate (Merck, 10 cm×10 cm) and developed two-dimensionally. The developing solutions used for the first and second dimensions were isobutyric acid:concentrated aqueous ammonia:water=66:1:33 (v/v/v) and 2-propanol:hydrochloric acid:water=65:10:25 (v/v/v), respectively.
# In this technique, upon incorporation of a radioactive substrate, a nucleotide located at the 5′-side of the substrate can be detected on two-dimensional TLC. […]
# [5] = FRET between s or v in 35-mer DNA and FAM-y or FAM-hx-y in 17-mer RNA (DNA/RNA duplexes); format: physicochemical; conditions: for FRET with 17-mer RNA using excessive DNA probe: 10 molar equivalents of DNA against the 17-mer RNA
# From the text: (§1) DNA containing an artificial base s or v was synthesized as described, for example, in WO 01/05801 or WO 2005/026187 by using a cyanoethylphosphoroamidite derivative of a nucleotide containing an artificial base s or v in accordance with the DNA chemical synthesis method well known in the art. The sequence of the chemically synthesized 35-mer DNA is as follows: 5′-CAN1N2N3[…]-3′ (SEQ ID NO: 20; DNA in which N1N2N3 is CTs or CTv is referred to as DNA35s1 or DNA35v1, respectively; DNA in which N1N2N3 is Css or Cvv is referred to as DNA35s2a or DNA35v2a, respectively; and DNA in which N1N2N3 is sTs or vTv is referred to as DNA35s2b or DNA35v2b, respectively). The resulting DNA was purified by gel electrophoresis.
# 17-mer RNA incorporating FAM-y or FAM-hx-y at the N′ position (5′-[…]′AGUG-3′; SEQ ID NO: 21) was prepared through T7 transcription using T7 RNA polymerase and a substrate of FAM-y or FAM-hx-y (FAM-yTP or FAM-hx-yTP). […] The reaction mixture was heated at 75° C. for 3 minutes and the 17-mer transcript was purified by gel electrophoresis.
# (§2) Fluorescence spectra were measured in a buffer containing 10 mM sodium phosphate (pH 7.0), 100 mM NaCl and 0.1 mM EDTA. Emission spectra were recorded with an excitation wavelength of 350 nm for s and 360 nm for v, respectively. The emission spectral bandpass was set to 5 nm.
# The 17-mer RNA site-specifically incorporating FAM-y or FAM-hx-y was hybridized with 35-mer DNA site-specifically containing one or two s or v bases (DNA35s1, 35s2a, 35S2b, 35v1, 35v2a or 35v2b) to measure emission spectra for the DNA/RNA duplex at different temperatures (20° C. and 70° C.).
# [6] = Steady-state fluorescence emission of single-stranded DNAs containing s or v; format: physicochemical; conditions: single-stranded 35-mer DNA with two artificial bases
# From the text: as §1, §2
compound,measurement,setting,value
2-formyl-1H-pyrrol-1-yl group [Pa],relative yield of full-length (17-mer) transcript,T7 RNA polymerase [1],92%
same,full-length transcript formation,T7 RNA polymerase [1],full-length products were obtained
"2-oxo-1,3-dihydroimidazol-1-yl group [reference compound]",relative yield of full-length (17-mer) transcript,T7 RNA polymerase [1],35%
same,full-length transcript formation,T7 RNA polymerase [1],no full-length transcript was obtained
"Nc1nc(-c2cccs2)c2nc[nH]c2n1 [s, 2-amino-6-(2-thienyl)-9H-purin-9-yl group]",excitation wavelength (maximum),[2],352 nm and 299 nm
same,"fluorescence wavelength, center",[2],434 nm
same,quantum yield of the fluorescence,[2]; pH 7.0,0.41
same,selectivity of s incorporation into RNA opposite Pa in the template DNA,"T7 RNA polymerase [3]; template containing one Pa base, sTP 1 mM (Table 1, Entry No. 1)",97%
same,selectivity of s incorporation at the first position,T7 RNA polymerase [3]; template containing two Pa bases,95%
same,selectivity of s incorporation at the second position,"T7 RNA polymerase [3]; template containing two Pa bases, sTP 1 mM",84-87%
same,selectivity of s incorporation at the second position,"T7 RNA polymerase [3]; template containing two Pa bases, sTP 3 mM",89-93%
"Nc1nc(-c2cccs2)c2ncn([C@@H]3O[C@H](COP(=O)(O)OP(=O)(O)OP(=O)(O)O)[C@@H](O)[C@H]3O)c2n1 [sTP, 2-amino-6-(2-thienyl)-9-(1-β-D-ribofuranosyl)purine 5′-triphosphate]",misincorporation of sTP opposite natural bases in the template,"T7 RNA polymerase [3]; Table 1, Entry Nos. 4 and 6",no misincorporation
"c1csc(-c2ncnc3[nH]cnc23)c1 [s′, 6-(2-thienyl)-9H-purin-9-yl group]",excitation wavelength (maximum),[2],325 nm
same,"fluorescence wavelength, center",[2],381 nm
"Nc1nc(-c2nccs2)c2nc[nH]c2n1 [v, 2-amino-6-(2-thiazolyl)-9H-purin-9-yl group]",excitation wavelength (maximum),[2],363 nm
same,"fluorescence wavelength, center",[2],461 nm
O=c1[nH]cccc1C1OC(COP(=O)(O)OP(=O)(O)OP(=O)(O)O)C(O)C1O (stereo not shown) [yTP],incorporation of yp opposite natural template bases,T7 RNA polymerase [4],a slight amount of yp was incorporated
"DNA35s1: 35-mer DNA (SEQ ID NO: 20) in which N1N2N3 is CTs (DNA CACTNCTCGGGATTCCCTATAGTGAGTCGTATTAT; DNA, [s] at 5, backbone, methylation of C and the base at N not given here)",FRET with 17-mer RNA using excessive DNA probe,[5],completely buried in the background fluorescence
same,FRET in duplex with 17-mer RNA incorporating FAM-y or FAM-hx-y,[5]; 20° C.,FRET occurred
same,FRET in duplex with 17-mer RNA incorporating FAM-y or FAM-hx-y,[5]; duplex denatured at 70° C.,FRET was significantly reduced
"DNA35s2a: 35-mer DNA (SEQ ID NO: 20) in which N1N2N3 is Css (DNA CACNNCTCGGGATTCCCTATAGTGAGTCGTATTAT; DNA, [s] at 4, 5, backbone, methylation of C and the base at N not given here)",fluorescence intensity of single-stranded DNA,[6],significantly decreased
same,FRET with 17-mer RNA using excessive DNA probe,[5],FRET was clearly observed
same,FRET in duplex with 17-mer RNA incorporating FAM-y or FAM-hx-y,[5]; 20° C.,FRET occurred efficiently
"DNA35s2b: 35-mer DNA (SEQ ID NO: 20) in which N1N2N3 is sTs (DNA CANTNCTCGGGATTCCCTATAGTGAGTCGTATTAT; DNA, [s] at 3, 5, backbone, methylation of C and the base at N not given here)",fluorescence intensity of single-stranded DNA,[6],no significant decrease
"DNA35v1: 35-mer DNA (SEQ ID NO: 20) in which N1N2N3 is CTv (DNA CACTNCTCGGGATTCCCTATAGTGAGTCGTATTAT; DNA, [v] at 5, backbone, methylation of C and the base at N not given here)",FRET with 17-mer RNA using excessive DNA probe,[5],completely buried in the background fluorescence
same,FRET in duplex with 17-mer RNA incorporating FAM-y or FAM-hx-y,[5]; 20° C.,FRET occurred
same,FRET in duplex with 17-mer RNA incorporating FAM-y or FAM-hx-y,[5]; duplex denatured at 70° C.,FRET was significantly reduced
"DNA35v2a: 35-mer DNA (SEQ ID NO: 20) in which N1N2N3 is Cvv (DNA CACNNCTCGGGATTCCCTATAGTGAGTCGTATTAT; DNA, [v] at 4, 5, backbone, methylation of C and the base at N not given here)",fluorescence intensity of single-stranded DNA,[6],significantly decreased
same,FRET with 17-mer RNA using excessive DNA probe,[5],FRET was clearly observed
same,FRET in duplex with 17-mer RNA incorporating FAM-y or FAM-hx-y,[5]; 20° C.,FRET occurred efficiently
"DNA35v2b: 35-mer DNA (SEQ ID NO: 20) in which N1N2N3 is vTv (DNA CANTNCTCGGGATTCCCTATAGTGAGTCGTATTAT; DNA, [v] at 3, 5, backbone, methylation of C and the base at N not given here)",fluorescence intensity of single-stranded DNA,[6],no significant decrease
